Experiments:
[1] = test system: L3.6 pancreatic cancer cells; experiment: Cell viability / cell death (MTT) in L3.6 pancreatic cancer cells; format: cell-based, human; conditions: for cell death of L3.6 cells: 2.5 μg/ml C6-ceramide, 1.5 μg/ml taxol
Experimental: L3.6 pancreatic cancer cells, cultured either in the basic DMEM medium or with 10% FBS, were treated with the indicated doses of taxol in the presence or absence of C6-ceramide (10 μg/ml) for 48 hours and cell viability was detected by MTT assay (FIGS. 1A-1B). L3.6 cells, cultured either in basic DMEM medium or with 10% FBS, were treated with the indicated dose of C6-ceramide in the presence or absence of taxol (1.5 μg/ml) for 48 hours and cell viability was detected by MTT assay (FIGS. 1C-1D). Mitomycin C (10 μg/ml) was always present in the media to prevent cell proliferation from occurring. The data represents the mean±SD of at least triplicate experiments. *P<0.05 versus group without C6-ceramide presents (FIGS. 1A-1B). **P<0.05 versus group without taxol presents (FIGS. 1C-1D).
(§1) FIGS. 3A-3H show synergistic anti-tumor effects of C6-ceramide and gemcitabine in vivo and in vitro. SCID/Beige/Taconic nude male mice (22-25 g; 6-8 weeks old) were ear tagged and randomized into 4 different groups (Control, Ceramide, gemcitabine, Ceramide+gemcitabine) combining 5 mice each prior to inoculation subcutaneous (s.c.) with 2×10^6 L3.6 cells in a 0.1 ml volume into the internal surface of the right thigh. Treatment was started 4 days after L3.6 cell injection with thrice weekly (3×/wk) intraperitoneal (i.p.) injections of gemcitabine (two doses: 5.0 and 10.0 mg/ml) with or without C6-ceramide (10 mg/ml) for 2 weeks. Mouse survival (FIGS. 3A, 3B, and 3E) and tumor volume (in cm^3; FIGS. 3C and 3D) were recorded (FIG. 3E). Pancreatic cancer cell lines, including L3.6 cells (FIG. 3F), Panc-1 cells (FIG. 3G) and MIA-PaCa2 cells (MIA, FIG. 3H) were cultured in basic DMEM medium and were treated with gemcitabine (Gem, 1 μg/ml). Mitomycin C was always present in the media to prevent cell proliferation from occurring. The data represent the mean±SD of at least triplicate experiments. *P<0.05 versus group without C6-ceramide presents. The experiments were repeated at least three times and similar results were observed.
Pancreatic cancer cell lines L3.6 cells were left untreated or treated with gemcitabine (Gem, 1 μg/ml) or taxol (1.5 μg/ml) in the presence or absence of C6-ceramide (10 μg/ml) for 2, 4 and 6 hours, AKT/mTORC1 and ERK activation were detected by Western Blot using indicated antibodies (FIGS. 5A and 5C). p-AKT (S473) and p-ERK at 4 hour time intervals for each treatment quantified (FIGS. 5B and 5D). L3.6 cells were pretreated with various inhibitors including PI3K/AKT inhibitor LY 294002 (LY, 1 μM), mTORC1 inhibitor rapamycin (100 nM), MEK/ERK inhibitor U0126 (1 μg/ml) or gemcitabine (1 μg/ml) for 48 hours, cell death was detected 48 hours later (FIG. 5E). The effects of the various inhibitors described above on AKT/mTORC1 and ERK activation were also detected by Western Blots using commercial available antibodies (FIG. 5F). *P<0.05 versus group without C6-ceramide presents. The experiments were repeated at least three times and similar results were observed.
Cell viability was measured by the 3-[4m5-dimethylthylthiazol-2-y]-2.5 diphenyltetrazolium bromide (MTT) method, as described in Cao et al. (2009) Sci. Signal, 2:RA17. Briefly, the cells were collected and seeded in 96-well plate at a density of 2×10^5 cells/cm^2. Different seeding densities were optimized at the beginning of the experiments. After overnight incubation cells were exposed to fresh medium containing indicated reagents at 37° C. After incubation for different time periods, 20 ul of MTT tetrazolium (Sigma, St. Louis, Mo.) salt dissolved in Hank's balanced solution at a concentration of 5 mg/ml was added to each well and incubated in a CO2 incubator for an additional 4 hours. The medium was subsequently aspirated from each well and 150 ul of DMSO (Sigma, St. Louis, Mo.) was added to dissolve formazan crystals and the absorbance of each well was obtained using a Dynatech MR5000 plate reader at a test wavelength of 490 nm with a reference wavelength of 630 nm. […]

L3.6 pancreatic cells = format: in vivo; conditions: taxol 3 mg/ml, C6-ceramide 10 mg/ml, i.p. 3×/wk, vs control
Experimental: Treatment was started 4 days after L3.6 cell injection with thrice weekly (3×/wk) intraperitoneal (i.p.) injections of paclitaxel 3.0 mg/ml with or without C6-ceramide (10 mg/ml) for 2 weeks. Mouse survival (FIGS. 2A and 2C), tumor volume (in cm^3; FIG. 2B), mouse body weight (in grams) were recorded (FIG. 2E). The average rate of tumor development was calculated by total tumor volume dividing by total number of days monitored (FIG. 2C).
as §1, with “SCID/Beige/Taconic” for “FIGS. 3A-3H show synergistic anti-tumor effects of C6-ceramide and gemcitabine in vivo and in vitro. SCID/Beige/Taconic”, “occurring.” for “occurring. The data represent the mean±SD of at least triplicate experiments. *P<0.05 versus group without C6-ceramide presents. The experiments were repeated at least three times and similar results were observed.”
SCID/Beige/Taconic male mice were inoculated with 2×10^6 L3.6 pancreatic cells and treated […] 4 days post tumor implant with thrice weekly (3×/wk) intraperitoneal (I.P.) injections of paclitaxel (taxol) 3.0 mg/ml or gemcitabine (Gem) 10 mg/ml after treatment and were autopsied when near death (as per IRB committee). Mouse survival, tumor volume (in cm^3), and body weight (in grams) were recorded. Average rate of tumor development was calculated by dividing total tumor volume by total number of days monitored.
The possible combination effect of C6-ceramide on gemcitabine-induced cytotoxicity (in vitro) and regression (in vivo) of the L3.6 pancreatic cancer cell was also tested according to the methods described in Examples 2 and 3.

| SMILES | sensitization to cetuximab ([1]; L3.6 cells) | enhancement of paclitaxel induced cell death ([1]; L3.6 cells, dose dependent manner) | L3.6 cell death, agent alone ([1]; basic DMEM medium, MTT) | L3.6 cell death ([1]; cultured in 10% FBS) | cell death of L3.6 cells ([1]; cultured in 10% FBS) | mouse survival (L3.6 pancreatic cells) | tumor volume (L3.6 pancreatic cells) | L3.6 cell death ([1]; basic DMEM medium, MTT, 48 hours, paclitaxel 1.5 μg/ml alone or combined with C6-ceramide) |
| --- | --- | --- | --- | --- | --- | --- | --- | --- |
| CCCCCCCCCCCCC/C=C/[C@@H](O)[C@H](CO)NC(=O)CCCCC [C6-ceramide, N-hexanoyl-D-sphingosine] | markedly sensitized | dramatically enhanced | limited effects | neither taxol or C6-ceramide alone had any meaningful effects | neither of these two alone had any measurable effect | minimal effects | minimal effects |  |
| CC(=O)O[C@H]1C(=O)[C@@]2(C)[C@H]([C@H](OC(=O)c3ccccc3)[C@]3(O)C[C@H](OC(=O)[C@H](O)[C@@H](NC(=O)c4ccccc4)c4ccccc4)C(C)=C1C3(C)C)[C@]1(OC(C)=O)CO[C@@H]1C[C@@H]2O [paclitaxel] |  |  |  | neither taxol or C6-ceramide alone had any meaningful effects | neither of these two alone had any measurable effect | minimal effects | minimal effects | less than 5% |
